{
  "source": "paper PMC10304486",
  "about": "“The FilZ Protein Contains a Single PilZ Domain and Facilitates the Swarming Motility of Pseudoalteromonas sp. SM9913” (Microorganisms, 2023)",
  "experiment_in_all_cases": "isothermal titration calorimetry",
  "format_in_all_cases": "binding",
  "key": {"[1]": {"molecular_target": "T1, FilZ (Pseudoalteromonas tetraodonis, UniProt A0AA37S473, G101A)", "T1 construct": "gene GCM10007914_23770; single PilZ domain protein", "T1 sequence (A0AA37S473 entry or part of it G101A)": "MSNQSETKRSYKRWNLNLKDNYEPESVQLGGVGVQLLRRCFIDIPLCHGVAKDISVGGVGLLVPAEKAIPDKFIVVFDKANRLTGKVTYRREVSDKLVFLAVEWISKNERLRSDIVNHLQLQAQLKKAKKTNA"}, "[2]": {"molecular_target": "T2, FilZ (Pseudoalteromonas tetraodonis, UniProt A0AA37S473)", "T2 construct": "gene GCM10007914_23770; single PilZ domain protein", "T2 sequence (A0AA37S473 1-133)": "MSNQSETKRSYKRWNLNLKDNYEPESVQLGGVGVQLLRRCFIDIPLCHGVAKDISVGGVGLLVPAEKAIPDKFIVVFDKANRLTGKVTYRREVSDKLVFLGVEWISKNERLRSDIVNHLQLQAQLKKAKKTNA"}, "[3]": {"molecular_target": "T3, FilZ (Pseudoalteromonas tetraodonis, UniProt A0AA37S473, G58A)", "T3 construct": "gene GCM10007914_23770; single PilZ domain protein", "T3 sequence (A0AA37S473 entry or part of it G58A)": "as the sequence (A0AA37S473 entry or part of it G101A) above, with G58A, A101G counted along it"}, "[4]": {"molecular_target": "T4, FilZ (Pseudoalteromonas tetraodonis, UniProt A0AA37S473, D53A)", "T4 construct": "gene GCM10007914_23770; single PilZ domain protein", "T4 sequence (A0AA37S473 entry or part of it D53A)": "as the sequence (A0AA37S473 entry or part of it G101A) above, with D53A, A101G counted along it"}, "[5]": {"molecular_target": "T5, FilZ (Pseudoalteromonas tetraodonis, UniProt A0AA37S473, R9A)", "T5 construct": "gene GCM10007914_23770; single PilZ domain protein", "T5 sequence (A0AA37S473 entry or part of it R9A)": "as the sequence (A0AA37S473 entry or part of it G101A) above, with R9A, A101G counted along it"}, "[6]": {"molecular_target": "T6, FilZ (Pseudoalteromonas tetraodonis, UniProt A0AA37S473, R13A)", "T6 construct": "gene GCM10007914_23770; single PilZ domain protein", "T6 sequence (A0AA37S473 entry or part of it R13A)": "as the sequence (A0AA37S473 entry or part of it G101A) above, with R13A, A101G counted along it"}},
  "data": [
    {"smiles": "Nc1nc2c(ncn2[C@@H]2O[C@@H]3COP(=O)(O)O[C@H]4[C@@H](O)[C@H](n5cnc6c(=O)[nH]c(N)nc65)O[C@@H]4COP(=O)(O)O[C@H]3[C@H]2O)c(=O)[nH]1", "note": "[c-di-GMP]", "values": [
      {"measurement": "completely lost the ability to bind", "setting": "[1]", "value": "Mutants R9A, R13A, D53A, G58A, and G101A all completely lost the ability to bind c-di-GMP"},
      {"measurement": "Kd", "setting": "[2]", "value": 230, "unit": "nM"},
      {"measurement": "completely lost the ability to bind", "setting": "[3]", "value": "Mutants R9A, R13A, D53A, G58A, and G101A all completely lost the ability to bind c-di-GMP"},
      {"measurement": "completely lost the ability to bind", "setting": "[4]", "value": "Mutants R9A, R13A, D53A, G58A, and G101A all completely lost the ability to bind c-di-GMP"},
      {"measurement": "completely lost the ability to bind", "setting": "[5]", "value": "Mutants R9A, R13A, D53A, G58A, and G101A all completely lost the ability to bind c-di-GMP"},
      {"measurement": "completely lost the ability to bind", "setting": "[6]", "value": "Mutants R9A, R13A, D53A, G58A, and G101A all completely lost the ability to bind c-di-GMP"}
    ]}
  ]
}
